Results on 19 compounds are retold here after patent US20200031848A1, “AR-V7 INHIBITORS” (Hoffmann-La Roche Inc., priority 2016, published 2020).

Each structure is given as a SMILES string.

The target of series [1] is T1, AR transcriptional activity (Homo sapiens, UniProt P10275, T878A).
T1 construct: The LNCaP eGFP cell line was stably transfected with an androgen-responsive probasin-derived promoter fused to an eGFP reporter; endogenous in cells; host or cells: LNCaP eGFP (LN-ARR2PB-eGFP) human prostate cancer cells
T1 sequence (P10275 1-920 T878A): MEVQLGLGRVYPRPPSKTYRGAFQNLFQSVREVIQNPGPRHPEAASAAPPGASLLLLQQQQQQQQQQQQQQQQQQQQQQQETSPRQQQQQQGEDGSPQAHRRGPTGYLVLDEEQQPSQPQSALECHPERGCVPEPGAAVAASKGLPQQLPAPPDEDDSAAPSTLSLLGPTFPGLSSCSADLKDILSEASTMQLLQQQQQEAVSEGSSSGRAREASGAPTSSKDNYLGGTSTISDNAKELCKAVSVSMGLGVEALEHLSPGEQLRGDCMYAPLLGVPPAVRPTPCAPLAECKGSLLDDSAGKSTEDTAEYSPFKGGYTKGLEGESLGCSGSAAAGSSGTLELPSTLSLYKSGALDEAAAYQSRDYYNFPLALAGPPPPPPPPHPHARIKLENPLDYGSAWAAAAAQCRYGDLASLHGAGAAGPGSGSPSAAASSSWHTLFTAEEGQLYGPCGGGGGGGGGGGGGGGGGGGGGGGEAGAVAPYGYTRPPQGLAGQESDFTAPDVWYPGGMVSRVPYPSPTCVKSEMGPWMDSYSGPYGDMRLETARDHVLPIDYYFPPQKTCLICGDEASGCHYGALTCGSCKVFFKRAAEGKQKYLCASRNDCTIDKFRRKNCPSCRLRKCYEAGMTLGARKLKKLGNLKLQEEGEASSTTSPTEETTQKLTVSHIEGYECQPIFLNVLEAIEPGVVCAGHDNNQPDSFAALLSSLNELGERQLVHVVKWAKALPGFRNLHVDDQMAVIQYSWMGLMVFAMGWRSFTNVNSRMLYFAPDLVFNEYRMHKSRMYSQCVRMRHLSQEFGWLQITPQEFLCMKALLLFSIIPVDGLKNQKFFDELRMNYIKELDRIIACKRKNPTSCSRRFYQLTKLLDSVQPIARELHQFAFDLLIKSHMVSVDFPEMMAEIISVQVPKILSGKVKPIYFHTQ
The series can be described thus: eGFP cellular AR transcription assay. Type of series: cell-based. To be noted: for IC50: LNCaP eGFP cell line. From the text:
The DNA-binding domain is an attractive target for inhibition of AR dimerization and/or DNA binding. In silico computational drug discovery methods were used to conduct a virtual screen of >3 million purchasable lead-like compounds from the ZINC database (Irwin, J. et al.^11) to identify potential DBD binders. The in silico methods included large-scale docking, in-site rescoring and consensus voting procedures. It will be understood by a person of skill that COOH and NR2 may include the corresponding ions, for example carboxylate ions and ammonium ions, respectively. Alternatively, where the ions are shown, a person of skill in the art will appreciate that the counter ion may also be present. Furthermore, it will be appreciated by a person of skill that other moieties may include the corresponding ions, and where the ions are shown, a person of skill in the art will appreciate that the counter ion may also be present. […] Where the % inhibition, eGFP IC50 or the PSA IC50 has no value given, this may be because no measurement was taken or the value was not calculated, in the case of the % inhibition. In vitro identification of AR inhibitors targeting AR DBD The selected compounds were assessed with a non-destructive eGFP assay that quantifies levels of AR transcriptional activity, were identified (table below).
(§1) 1. Cell Culture: LNCaP and PC3 human prostate cancer cells were obtained from American Type Culture Collection (ATCC, Manassas, Va.) and grown in RPMI 1640 medium supplemented with 5% fetal bovine serum (FBS) (Invitrogen). The LNCaP eGFP cell line was stably transfected with an androgen-responsive probasin-derived promoter fused to an eGFP reporter (LN-ARR2PB-eGFP) using a lentiviral approach, and were grown in phenol-red-free RPMI 1640 supplemented with 5% CSS. In-house developed MDV3100-resistant LNCaP cells were cultured in RPMI 1640 supplemented with 5% FBS and 10 μM MDV3100. All cells were maintained at 37° C. in 5% CO2.
2. eGFP cellular AR transcription assay: The AR transcriptional activity was assayed as previously described (Tavassoli, P., et al.^12).

In series [2] the test system is PSA levels secreted into the media. The series can be described thus: Prostate-specific antigen (PSA) assay. Type of series: cell-based. To be noted: Homo sapiens, 72 h; in parallel to the eGFP assay, same plates, 3 days. Here is the method: as §1
3. Prostate-specific antigen (PSA) assay: The evaluation of PSA levels secreted into the media was performed in parallel to the eGFP assay using the same plates. After cells were incubated for 3 days, 150 μl of the media was taken from each well, and added to 150 μl of PBS. PSA levels were then evaluated using Cobas e 411 analyzer instrument (Roche Diagnostics) according to the manufacturer's instructions.

The next series in a line: in vitro. To be noted: human, microsomes; for microsomal CLint at 2 μM: pH 7.4. Here is the method:
Microsomal incubations were carried out in 96-well plates in 5 aliquots of 40 μL each (one for each time point). […] Control incubations were performed replacing the NADPH-cofactor system with PBS. […] Incubations were performed in duplicates. Five time points over 40 minutes had been analyzed. The reactions were stopped by adding 12 volumes of 90% acetonitrile-water to incubation aliquots, followed by protein sedimentation by centrifuging at 5500 rpm for 5 minutes. Supernatants were analyzed using the HPLC system coupled with tandem mass spectrometer. The elimination constant (kel), half-life (t1/2) and intrinsic clearance (Clint) were determined in plot of […] versus time, using linear regression analysis: […]

Regarding `Brc1ncn(-c2csc(N3CCOCC3)n2)c1Br` [Example 43, 4-[4-(4,5-dibromoimidazol-1-yl)thiazol-2-yl]morpholine], the IC50 in series [1] was determined as 1230 nM; in series [2] it was 1390 nM. The intrinsic metabolic clearance (microsomal CLint) at 2 μM in “in vitro” is 165 µL/min/mg.
On to `CC1(C)CN(c2nc(-n3cc(Br)nc3Br)cs2)CCO1` [Example 1, 4-[4-(2,4-dibromoimidazol-1-yl)thiazol-2-yl]-2,2-dimethyl-morpholine], for which the values for the IC50 in series [1] and in series [2] were 117 nM and 95 nM, respectively.
With `Brc1cn(-c2csc(N3[C@@H]4CC[C@H]3COC4)n2)c(Br)n1` [Example 10, (1R,5S)-8-[4-(2,4-dibromoimidazol-1-yl)thiazol-2-yl]-3-oxa-8-azabicyclo[3.2.1]octane], the IC50 in series [1] came out at 934 nM; in series [2], 817 nM.
Turning to `Brc1cn(-c2csc(N3CCOCC3)n2)c(Br)n1` [Example 40, 4-[4-(2,4-dibromoimidazol-1-yl)thiazol-2-yl]morpholine], the IC50 in series [1] came to 413 nM; in series [2], 420 nM. In addition, the microsomal CLint at 2 μM in the series “in vitro” turned out to be 177 µL/min/mg.
Consider `Brc1ncn(-c2csc(N3[C@@H]4CC[C@H]3COC4)n2)c1Br` [Example 7, (1R,5S)-8-[4-(4,5-dibromoimidazol-1-yl)thiazol-2-yl]-3-oxa-8-azabicyclo[3.2.1]octane], for which the IC50 in series [1] is 458 nM; in series [2] it was 385 nM.
The matching figures for `Clc1c(Br)ncn1-c1csc(N2[C@@H]3CC[C@H]2COC3)n1` [Example 8, (1R,5S)-8-[4-(4-bromo-5-chloro-imidazol-1-yl)thiazol-2-yl]-3-oxa-8-azabicyclo[3.2.1]octane]: 717 nM and 717 nM.
As for `Brc1ncn(-c2csc(N3C[C@H]4CC[C@@H](C3)O4)n2)c1Br` [Example 3, (1R,5S)-3-[4-(4,5-dibromoimidazol-1-yl)thiazol-2-yl]-8-oxa-3-azabicyclo[3.2.1]octane], the IC50 turned out to be 182 nM in series [1] and 1060 nM in series [2].
As to `Clc1c(Br)ncn1-c1csc(N2[C@@H]3CCC[C@H]2COC3)n1` [Example 9, (1R,5S)-9-[4-(4-bromo-5-chloro-imidazol-1-yl)thiazol-2-yl]-3-oxa-9-azabicyclo[3.3.1]nonane], the IC50 stood at 746 nM in series [1] and 784 nM in series [2].
As for `Cc1nc(Br)cn1-c1csc(N2CCOCC2)n1` [Example 42, 4-[4-(4-bromo-2-methyl-imidazol-1-yl)thiazol-2-yl]morpholine], the IC50 worked out at 750 nM in series [1] and 659 nM in series [2]. In addition, the microsomal CLint at 2 μM in the series “in vitro” was determined as 72 µL/min/mg.
Turning to `Clc1ncn(-c2csc(N3C[C@H]4CC[C@@H](C3)O4)n2)c1Br` [Example 21, (1R,5S)-3-[4-(5-bromo-4-chloro-imidazol-1-yl)thiazol-2-yl]-8-oxa-3-azabicyclo[3.2.1]octane], in series [1], half-maximal inhibition (IC50) was put at 300 nM. In “in vitro”, the “metabolic stability in human hepatic microsomal test system (in words)” value was “high metabolic stability” and the microsomal CLint at 2 μM came out at 6 µL/min/mg.
For the compound `COc1nc(Br)cn1-c1csc(N2[C@@H]3CC[C@H]2COC3)n1` [Example 23, (1S,5R)-8-[4-(4-bromo-2-methoxy-imidazol-1-yl)thiazol-2-yl]-3-oxa-8-azabicyclo[3.2.1]octane], the concentration for half-maximal inhibition (IC50) in series [1] amounted to 270 nM. Besides, the microsomal CLint at 2 μM in “in vitro” came to 22 µL/min/mg.
Consider `Clc1ncn(-c2csc(N3[C@@H]4CCC[C@H]3COC4)n2)c1Br` [Example 5, (1R,5S)-9-[4-(5-bromo-4-chloro-imidazol-1-yl)thiazol-2-yl]-3-oxa-9-azabicyclo[3.3.1]nonane], for which the results for the IC50 in series [1] and in series [2] were 268 nM and 181 nM, respectively.
In series [1], `FC(F)(F)C1CN(c2nc(-n3cc(Br)nc3Br)cs2)CCO1` (stereo not shown) [Example 38, 4-[4-(2,4-dibromoimidazol-1-yl)thiazol-2-yl]-2-(trifluoromethyl)morpholine] yielded an IC50 of 1950 nM. The same compound yielded an intrinsic metabolic clearance (microsomal CLint) at 2 μM in the series “in vitro” of 44 µL/min/mg.
With `Cc1ncn(-c2csc(N3CCOCC3)n2)c1Br` [Example 54, 4-[4-(5-bromo-4-methyl-imidazol-1-yl)thiazol-2-yl]morpholine], in series [1] (read-out: eGFP % inhib. at 1 μM), the inhibition at 1 µM was determined as 28%. This compound also showed a microsomal CLint at 2 μM in the series “in vitro” of 224 µL/min/mg.
The compound `CCC1COCCN1c1nc(-n2cc(Br)nc2Br)cs1` (stereo not shown) [Example 15, 4-[4-(2,4-dibromoimidazol-1-yl)thiazol-2-yl]-3-ethyl-morpholine] had a half-inhibitory concentration (IC50) in series [1] of 130 nM. The compound also returned an intrinsic metabolic clearance (microsomal CLint) at 2 μM in the series “in vitro” of 51 µL/min/mg.
On to `Clc1ncn(-c2csc(N3[C@@H]4CC[C@H]3COC4)n2)c1Br` [Example 6, (1R,5S)-8-[4-(5-bromo-4-chloro-imidazol-1-yl)thiazol-2-yl]-3-oxa-8-azabicyclo[3.2.1]octane], for which the results for the concentration for half-maximal inhibition (IC50) in series [1] and in series [2] were 404 nM and 377 nM, respectively.
As to `CSc1nc(Br)cn1-c1csc(N2CCOCC2)n1` [Example 41, 4-[4-(4-bromo-2-methylsulfanyl-imidazol-1-yl)thiazol-2-yl]morpholine], the IC50 in series [1] was 496 nM; in series [2], 458 nM. This compound returned a microsomal CLint at 2 μM in “in vitro” of 198 µL/min/mg.
As for `Brc1cn(-c2csc(N3[C@@H]4CCC[C@H]3COC4)n2)c(Br)n1` [Example 2, (1S,5R)-9-[4-(2,4-dibromoimidazol-1-yl)thiazol-2-yl]-3-oxa-9-azabicyclo[3.3.1]nonane], the 50% inhibitory concentration (IC50) in series [1] amounted to 135 nM; in series [2], 74 nM.
In the case of `Brc1ncn(-c2csc(N3[C@@H]4CCC[C@H]3COC4)n2)c1Br` [Example 4, (1S,5R)-9-[4-(4,5-dibromoimidazol-1-yl)thiazol-2-yl]-3-oxa-9-azabicyclo[3.3.1]nonane], the IC50 in series [1] worked out at 196 nM; in series [2], 6 nM.
